# Assay results from patent US6734205B2, “Substituted guanidine derivatives” (Sumitomo Pharmaceuticals Company Limited, priority 1999, dated 2004).
# Counter-ions that a name gives are not always drawn.
row,melting point,SMILES
1,286 °C (dec.),CS(=O)(=O)O.Cn1c(C(=O)NC(=N)N)cc2c(C(F)(F)F)cc(P(=O)(O)O)cc21
2,258 °C (dec.),CS(=O)(=O)O.Cn1c(C(=O)NC(=N)N)cc2c(C(F)(F)F)ccc(P(=O)(O)O)c21
3,234 °C (dec.),Br.Cn1c(C(=O)NC(=N)N)cc2c(C(F)(F)F)ccc(CCP(=O)(O)O)c21
4,298 °C (dec.),"Cn1c(C(=O)NC(=N)N)cc2c(Cl)cc(OS(=O)(=O)O)cc21 (as salt: sulfate) [Example 11, 2-[[[Amino(imino)methyl]amino]carbonyl]-4-chloro-1-methyl-1H-indol-6-yl Hydrogen Sulfate]"
5,300 °C (dec.),"Cn1c(C(=O)NC(=N)N)cc2c(C(F)(F)F)cc(OS(=O)(=O)O)cc21 (as salt: sulfate) [Example 12, 2-[[[Amino(imino)methyl]amino]carbonyl]-1-methyl-4-(trifluoromethyl)-1H-indol-6-yl Hydrogen Sulfate]"
6,298 °C (dec.),"Cn1c(C(=O)NC(=N)N)cc2c(C(F)(F)F)ccc(OS(=O)(=O)O)c21 (as salt: sulfate) [Example 13, 2-[[[Amino(imino)methyl]amino]carbonyl]-1-methyl-4-(trifluoromethyl)-1H-indol-7-yl Hydrogen Sulfate]"
7,231 to 266 °C (dec.),"Cn1c(C(=O)NC(=N)N)cc2c(C(F)(F)F)cc(CP(=O)(O)O)cc21 [Example 15, [2-[[[amino(imino)methyl]amino]-carbonyl]-1-methyl-4-(trifluoromethyl)-1H-indol-6-yl]-methylphosphonic Acid]"
8,249 to 265 °C (dec.),"Cn1c(C(=O)NC(=N)N)cc2c(C(F)(F)F)ccc(CP(=O)(O)O)c21 [Example 16, [2-[[[Amino(imino)methyl]amino]carbonyl]-1-methyl-4-(trifluoromethyl)-1H-indol-7-yl]methylphosphonic Acid]"
9,250 to 266 °C (dec.),"Cn1c(C(=O)NC(=N)N)cc2c(C(F)(F)F)cc(OCC(=O)O)cc21 [Example 21, [[2-[[[amino(imino)methyl]-amino]carbonyl]-1-methyl-4-(trifluoromethyl)-1H-indol-6-yl]oxy]acetic Acid]"
10,224 to 233 °C (dec.),"Cn1c(C(=O)NC(=N)N)cc2c(C(F)(F)F)ccc(OCC(=O)O)c21 [Example 22, [[2-[[[Amino(imino)methyl]amino]carbonyl]-1-methyl-4-(trifluoromethyl)-1H-indol-7-yl]oxy]acetic Acid]"
11,257 to 260 °C (dec.),"Cn1c(C(=O)NC(=N)N)cc2c(Cl)cc(OCC(=O)O)cc21 [Example 23, [[2-[[[Amino(imino)methyl]amino]carbonyl]-4-chloro-1-methyl-1H-indol-6-yl]oxy]acetic Acid]"
12,210 to 225 °C (dec.),"Cn1c(C(=O)NC(=N)N)cc2c(Cl)ccc(OCC(=O)O)c21 [Example 24, [[2-[[[Amino(imino)methyl]amino]carbonyl]-4-chloro-1-methyl-1H-indol-7-yl]oxy]acetic Acid]"
13,260 to 270 °C (dec.),"Cc1cc(OCC(=O)O)cc2c1cc(C(=O)NC(=N)N)n2C [Example 25, [[2-[[[Amino(imino)methyl]amino]carbonyl]-1,4-dimethyl-1H-indol-6-yl]oxy]acetic Acid]"
14,248 to 252 °C (dec.),"Cc1ccc(OCC(=O)O)c2c1cc(C(=O)NC(=N)N)n2C [Example 26, [[2-[[[Amino(imino)methyl]amino]carbonyl]-1,4-dimethyl-1H-indol-7-yl]oxy]acetic Acid]"
15,275 °C (dec.),"Cn1c(C(=O)NC(=N)N)cc2c(C(F)(F)F)ccc(OCCS(=O)(=O)O)c21 [Example 31, 2-[[2-[[[Amino(imino)methyl]amino]carbonyl]-1-methyl-4-(trifluoromethyl)-1H-indol-7-yl]oxy]-ethanesulfonic Acid]"
16,≥ 272 °C (dec.),"Cn1c(C(=O)NC(=N)N)cc2c(C(F)(F)F)ccc(OCCCS(=O)(=O)O)c21 [Example 33, 3-[[2-[[[Amino(imino)methyl]amino]carbonyl]-1-methyl-4-(trifluoromethyl)-1H-indol-7-yl]oxy]-1-propanesulfonic Acid]"
17,325 °C (dec.),"Cn1c(C(=O)NC(=N)N)cc2c(Cl)cc(OCCCS(=O)(=O)O)cc21 [Example 34, 3-[[2-[[[Amino(imino)methyl]amino]carbonyl]-4-chloro-1-methyl-1H-indol-6-yl]oxy]-1-propanesulfonic Acid]"
18,290 °C (dec.),"Cc1cc(OCCCS(=O)(=O)O)cc2c1cc(C(=O)NC(=N)N)n2C [Example 35, 3-[[2-[[[Amino(imino)methyl]amino]carbonyl]-1,4-dimethyl-1H-indol-6-yl]oxy]-1-propanesulfonic Acid]"
19,≥ 300 °C,"Cn1c(C(=O)NC(=N)N)cc2c(C(F)(F)F)cc(CS(=O)(=O)O)cc21 [Example 37, [2-[[[amino(imino)methyl]amino]-carbonyl]-1-methyl-4-(trifluoromethyl)-1H-indol-6-yl]-methanesulfonic Acid]"
20,≥ 300 °C,"Cn1c(C(=O)NC(=N)N)cc2c(C(F)(F)F)ccc(CS(=O)(=O)O)c21 [Example 38, [2-[[[Amino(imino)methyl]amino]carbonyl]-1-methyl-4-(trifluoromethyl)-1H-indol-7-yl]methanesulfonic Acid]"

# Further lines, the molecule ahead of its results:
row,SMILES,melting point
1,"Cc1c(OS(=O)(=O)O)ccc2c1cc(C(=O)NC(=N)N)n2C (as salt: sulfate) [Example 1, 2-[[[amino(imino)methyl]amino]-carbonyl]-1,4-dimethyl-1H-indol-5-yl Hydrogen Sulfate]",267 to 268 °C (dec.)
2,"Cc1cc(OS(=O)(=O)O)cc2c1cc(C(=O)NC(=N)N)n2C (as salt: sulfate) [Example 2, 2-[[[Amino(imino)methyl]amino]carbonyl]-1,4-dimethyl-1H-indol-6-yl Hydrogen Sulfate]",303 to 304 °C (dec.)
3,"Cn1c(C(=O)NC(=N)N)cc2cccc(OS(=O)(=O)O)c21 (as salt: sulfate) [Example 3, 2-[[[Amino(imino)methyl]amino]carbonyl]-1-methyl-1H-indol-7-yl Hydrogen Sulfate]",279 to 280 °C (dec.)
4,"Cc1ccc(OS(=O)(=O)O)c2c1cc(C(=O)NC(=N)N)n2C (as salt: sulfate) [Example 4, 2-[[[amino(imino)methyl]amino]-carbonyl]-1,4-dimethyl-1H-indol-7-yl Hydrogen Sulfate]",> 315 °C (dec.)
5,"Cn1c(C(=O)NC(=N)N)cc2c(OS(=O)(=O)O)cccc21 (as salt: sulfate) [Example 5, 2-[[[Amino(imino)methyl]amino]carbonyl]-1-methyl-1H-indol-4-yl Hydrogen Sulfate]",249 to 250 °C (dec.)
6,"Cn1c(C(=O)NC(=N)N)cc2cc(OS(=O)(=O)O)ccc21 (as salt: sulfate) [Example 6, 2-[[[Amino(imino)methyl]amino]carbonyl]-1-methyl-1H-indol-5-yl Hydrogen Sulfate]",280 to 281 °C (dec.)
7,"Cn1c(C(=O)NC(=N)N)cc2ccc(OS(=O)(=O)O)cc21 (as salt: sulfate) [Example 7, 2-[[[Amino(imino)methyl]amino]carbonyl]-1-methyl-1H-indol-6-yl Hydrogen Sulfate]",283 to 284 °C (dec.)
8,"Cn1c(C(=O)NC(=N)N)cc2c(Cl)ccc(OS(=O)(=O)O)c21 (as salt: sulfate) [Example 14, 2-[[[Amino(imino)methyl]amino]carbonyl]-4-chloro-1-methyl-1H-indol-7-yl Hydrogen Sulfate]",338 °C (dec.)
9,"CS(=O)(=O)O.Cn1c(C(=O)NC(=N)N)cc2ccc(O[C@@H]3O[C@H](C(=O)O)[C@@H](O)[C@H](O)[C@H]3O)cc21 [Example 8, [2-[[[amino(imino)methyl]amino]-carbonyl]-1-methyl-1H-indol-6-yl] β-D-glucopyranosideuronic Acid Methanesulfonate]",170 to 171 °C
10,"CS(=O)(=O)O.Cn1c(C(=O)NC(=N)N)cc2cc(O[C@@H]3O[C@H](C(=O)O)[C@@H](O)[C@H](O)[C@H]3O)ccc21 [Example 9, [2-[[[Amino(imino)methyl]amino]carbonyl]-1-methyl-1H-indol-5-yl] β-D-glucopyranosideuronic Acid Methanesulfonate]",219 °C (dec.)
11,"Cn1c(C(=O)NC(=N)N)cc2c(Cl)cc(CP(=O)(O)O)cc21 [Example 17, [2-[[[Amino(imino)methyl]amino]carbonyl]-4-chloro-1-methyl-1H-indol-6-yl]methylphosphonic Acid]",265 to 282 °C (dec.)
12,"Cn1c(C(=O)NC(=N)N)cc2c(Cl)ccc(CP(=O)(O)O)c21 [Example 18, [2-[[[Amino(imino)methyl]amino]carbonyl]-4-chloro-1-methyl-1H-indol-7-yl]methylphosphonic Acid]",273 to 284 °C (dec.)
13,"Cc1ccc(CP(=O)(O)O)c2c1cc(C(=O)NC(=N)N)n2C [Example 20, [2-[[[Amino(imino)methyl]amino]carbonyl]-1,4-dimethyl-1H-indol-7-yl]methylphosphonic Acid]",239 to 280 °C (dec.)
14,"N=C(N)NC(=O)c1cc2c(Cl)cccc2n1CCCS(=O)(=O)O [Example 27, 3-[2-[[[amino(imino)methyl]-amino]carbonyl]-4-chloro-1H-indol-1-yl]-1-propanesulfonic Acid]",281 °C (dec.)
15,"N=C(N)NC(=O)c1cc2c(C(F)(F)F)cccc2n1CCCS(=O)(=O)O [Example 28, 3-[2-[[[Amino(imino)methyl]amino]carbonyl]-4-(trifluoromethyl)-1H-indol-1-yl]-1-propanesulfonic Acid]",> 300 °C
16,"Cc1cccc2c1cc(C(=O)NC(=N)N)n2CCCS(=O)(=O)O [Example 29, 3-[2-[[[Amino(imino)methyl]amino]carbonyl]-4-methyl-1H-indol-1-yl]-1-propanesulfonic Acid]",298 °C (dec.)
17,"Cc1ccc(OCCCS(=O)(=O)O)c2c1cc(C(=O)NC(=N)N)n2C [Example 36, 3-[[2-[[[Amino(imino)methyl]amino]carbonyl]-1,4-dimethyl-1H-indol-7-yl]oxy]-1-propanesulfonic Acid]",≥ 278 °C (dec.)
